In the data set the test system is murine macrophages (RAW 264.7). The experiment in a line: Cell viability in the nitric oxide assay (resazurin assay). The format is cell-based. To be noted: RAW 264.7, nitric oxide assay. As for the experimental part:
The anti-inflammatory activity of the tested flavonolignans was determined as the ability to reduce nitric oxide production by murine macrophages (RAW 264.7) stimulated by bacterial lipopolysaccharides, as previously described. […] For the experiment, 1 × 10^6 cells/mL was seeded into the 96-well plate (100 µL/well). […] After 24 h, the medium was mixed with Griess reagent (0.04 g/mL), prepared freshly in deionized water at the ratio of 1:1. The absorbance was measured after 15 min at 540 nm by the SpectraMax i3x microplate reader. Cell viability was determined by resazurin assay.
For orientation: The colour change of resazurin is a common sign of viable cells or microbes.

Regarding `COc1cc(C2Oc3cc(-c4oc5c(Br)c(O)cc(O)c5c(=O)c4O)ccc3OC2CO)ccc1O` (stereo not shown) [compound 16, 8-bromo-2,3-dehydrosilybin AB], the “Concentration above which the cell viability decreased” value is listed as above 25 µM.

(Values after publication PMC9738062, “Selectively Halogenated Flavonolignans—Preparation and Antibacterial Activity” (International Journal of Molecular Sciences, 2022).)
